# Results: ChEMBL document CHEMBL5532691, “Anti-cancer activity and mechanism of flurbiprofen organoselenium compound RY-1-92 in non-small cell lung cancer” (RSC Med Chem, 2024)
# Calls of active or inactive are those of the source. No cut-off for these calls is given here.
# How the values were obtained:
# NCI-H460 [1] = assay: Inhibition of colony formation in human NCI-H460 cells at 30 uM measured after 48 hrs by giemsa staining based analysis relative to control; format: functional
# A549 [2] = assay: Induction of cell cycle arrest in human A549 cells assessed as accumulation of cells as G2 phase at 10 uM measured after 24 hrs by propidium iodide staining based flow cytometry analysis (reference value: 8.69%); format: functional
# A549 [3] = assay: Induction of cell cycle arrest in human A549 cells assessed as accumulation of cells as S phase at 30 uM measured after 24 hrs by propidium iodide staining based flow cytometry analysis (reference value: 19.57%); format: functional
# NCI-H460 [4] = assay: Induction of apoptosis in human NCI-H460 cells assessed as necrotic cells at 30 uM measured after 48 hrs by annexin V-FITC/PI staining based flow cytometry analysis (reference value: 2.47%); format: functional
# A549 [5] = assay: Downregulation of AKT phosphorylation expression in human A549 cells at 10 to 30 uM by Western blot analysis; format: functional, cell-based; details: dose 10-30 µM
# Lewis lung carcinoma [6] = assay: Antitumor activity against mouse Lewis lung carcinoma cell line xenografted in C57BL/6 mouse model assessed as reduction in tumor weight at 10 to 20 mg/kg, ip measured every three days for 15 days […]; format: functional, organism-based; details: dose 10-20 mg/kg, time 15.0 day
# NCI-H460 [7] = assay: Induction of cell cycle arrest in human NCI-H460 cells assessed as accumulation of cells as G2 phase at 30 uM measured after 24 hrs by propidium iodide staining based flow cytometry analysis (reference value: 8.37%); format: functional
# A549 [8] = assay: Inhibition of cell migration in human A549 cells at 10 to 30 uM measured after 24 hrs by wound healing assay relative to control; format: functional; details: dose 10-30 µM
# NCI-H460 [9] = assay: Induction of cell cycle arrest in human NCI-H460 cells assessed as accumulation of cells as G1 phase at 30 uM measured after 24 hrs by propidium iodide staining based flow cytometry analysis (reference value: 84.54%); format: functional
# NCI-H460 [10] = assay: Induction of apoptosis in human NCI-H460 cells assessed as early apoptotic cells at 10 uM measured after 48 hrs by annexin V-FITC/PI staining based flow cytometry analysis (reference value: 0.32%); format: functional
# A549 [11] = assay: Induction of apoptosis in human A549 cells assessed as early apoptotic cells at 10 uM measured after 48 hrs by annexin V-FITC/PI staining based flow cytometry analysis (reference value: 0.59%); format: functional
# NCI-H460 [12] = assay: Induction of apoptosis in human NCI-H460 cells assessed as necrotic cells at 10 uM measured after 48 hrs by annexin V-FITC/PI staining based flow cytometry analysis (reference value: 2.47%); format: functional
# NCI-H460 [13] = assay: Inhibition of cell migration in human NCI-H460 cells at 10 to 30 uM measured after 24 hrs by wound healing assay relative to control; format: functional; details: dose 10-30 µM
# A549 [14] = assay: Induction of apoptosis in human A549 cells assessed as necrotic cells at 10 uM measured after 48 hrs by annexin V-FITC/PI staining based flow cytometry analysis (reference value: 4.03%); format: functional
# NCI-H460 [15] = assay: Induction of cell cycle arrest in human NCI-H460 cells assessed as accumulation of cells as S phase at 30 uM measured after 24 hrs by propidium iodide staining based flow cytometry analysis (reference value: 7.09%); format: functional
# A549 [16] = assay: Downregulation of cyclin B1 protein expression in human A549 cells at 10 to 30 uM by Western blot analysis; format: functional, cell-based; details: dose 10-30 µM
# A549 [17] = assay: Induction of cell cycle arrest in human A549 cells assessed as accumulation of cells as G2 phase at 30 uM measured after 24 hrs by propidium iodide staining based flow cytometry analysis (reference value: 8.69%); format: functional
# NCI-H460 [18] = assay: Induction of cell cycle arrest in human NCI-H460 cells assessed as accumulation of cells as G2 phase at 10 uM measured after 24 hrs by propidium iodide staining based flow cytometry analysis (reference value: 8.37%); format: functional
# A549 [19] = assay: Downregulation of JNK phosphorylation expression in human A549 cells at 10 to 30 uM by Western blot analysis; format: functional, cell-based; details: dose 10-30 µM
# NCI-H460 [20] = assay: Antiproliferative activity against human NCI-H460 cells assessed as inhibition of cell growth incubated for 48 hrs by MTT assay; format: functional, cell-based
# NCI-H460 [21] = assay: Downregulation of JNK phosphorylation expression in human NCI-H460 cells at 10 to 30 uM by Western blot analysis; format: functional, cell-based; details: dose 10-30 µM
# A549 [22] = assay: Induction of apoptosis in human A549 cells assessed as late apoptotic cells at 30 uM measured after 48 hrs by annexin V-FITC/PI staining based flow cytometry analysis (reference value: 15.12%); format: functional
# A549 [23] = assay: Antiproliferative activity against human A549 cells assessed as inhibition of cell growth incubated for 48 hrs by MTT assay; format: functional, cell-based
# Lewis lung carcinoma [24] = assay: Antitumor activity against mouse Lewis lung carcinoma cell line xenografted in C57BL/6 mouse model assessed as reduction in tumor volume at 10 to 20 mg/kg, ip measured every three days for 15 days by vernier caliper analysis; format: functional, organism-based; details: dose 10-20 mg/kg, time 15.0 day
# Lewis lung carcinoma [25] = assay: Antitumor activity against mouse Lewis lung carcinoma cell line xenografted in C57BL/6 mouse model assessed as increase in bax protein expression at 10 to 20 mg/kg by Western blot analysis; format: functional, organism-based; details: dose 10-20 mg/kg
# NCI-H460 [26] = assay: Induction of apoptosis in human NCI-H460 cells assessed as early apoptotic cells at 30 uM measured after 48 hrs by annexin V-FITC/PI staining based flow cytometry analysis (reference value: 0.32%); format: functional
# A549 [27] = assay: Upregulation of Bax/Bcl2 ratio in human A549 cells at 10 to 30 uM by Western blot analysis; format: functional, cell-based; details: dose 10-30 µM
# A549 [28] = assay: Induction of cell cycle arrest in human A549 cells assessed as accumulation of cells as G1 phase at 10 uM measured after 24 hrs by propidium iodide staining based flow cytometry analysis (reference value: 71.74%); format: functional
# NCI-H460 [29] = assay: Induction of apoptosis in human NCI-H460 cells assessed as late apoptotic cells at 10 uM measured after 48 hrs by annexin V-FITC/PI staining based flow cytometry analysis (reference value: 5.41%); format: functional
structure (smiles),measurement,setting,value
CC(C(=O)NCCC[Se]C(F)(F)F)c1ccc(-c2ccccc2)c(F)c1 (stereo unspecified),inhibition at 30 µM,NCI-H460 [1],88%
same,Activity,A549 [2],9.29%
same,Activity,A549 [3],52.63%
same,Activity,NCI-H460 [4],6.76%
same,Activity,A549 [5],Active
same,Activity,Lewis lung carcinoma [6],Active
same,Activity,NCI-H460 [7],83.13%
same,inhibition (INH),A549 [8],62.9%
same,Activity,NCI-H460 [9],5.73%
same,Activity,NCI-H460 [10],0.36%
same,Activity,A549 [11],0.53%
same,Activity,NCI-H460 [12],1.67%
same,inhibition (INH),NCI-H460 [13],47.5%
same,Activity,A549 [14],3.99%
same,Activity,NCI-H460 [15],11.14%
same,Activity,A549 [16],Active
same,Activity,A549 [17],39.92%
same,Activity,NCI-H460 [18],10.69%
same,Activity,A549 [19],Active
same,IC50,"NCI-H460 [20]; NCI-H460, 48 h",78.2 µM
same,Activity,NCI-H460 [20]; dose 3-300 µM,Dose-Dependent Effect
same,Activity,NCI-H460 [21],Active
same,Activity,A549 [22],35.06%
same,IC50,"A549 [23]; A549, 48 h",41.9 µM
same,Activity,A549 [23]; dose 3-300 µM,Dose-Dependent Effect
same,Activity,Lewis lung carcinoma [24],Active
same,Activity,Lewis lung carcinoma [25],Active
same,Activity,NCI-H460 [26],1.97%
same,Activity,A549 [27],Active
same,Activity,A549 [28],76.88%
same,Activity,NCI-H460 [29],6.97%
